Results on seven molecules are retold here after ChEMBL document CHEMBL3991601, “The target landscape of clinical kinase drugs” (Science, 2017).

The target of assay [1] is T1, Breakpoint cluster region protein (Homo sapiens, UniProt P11274).
T1 sequence (P11274 whole entry): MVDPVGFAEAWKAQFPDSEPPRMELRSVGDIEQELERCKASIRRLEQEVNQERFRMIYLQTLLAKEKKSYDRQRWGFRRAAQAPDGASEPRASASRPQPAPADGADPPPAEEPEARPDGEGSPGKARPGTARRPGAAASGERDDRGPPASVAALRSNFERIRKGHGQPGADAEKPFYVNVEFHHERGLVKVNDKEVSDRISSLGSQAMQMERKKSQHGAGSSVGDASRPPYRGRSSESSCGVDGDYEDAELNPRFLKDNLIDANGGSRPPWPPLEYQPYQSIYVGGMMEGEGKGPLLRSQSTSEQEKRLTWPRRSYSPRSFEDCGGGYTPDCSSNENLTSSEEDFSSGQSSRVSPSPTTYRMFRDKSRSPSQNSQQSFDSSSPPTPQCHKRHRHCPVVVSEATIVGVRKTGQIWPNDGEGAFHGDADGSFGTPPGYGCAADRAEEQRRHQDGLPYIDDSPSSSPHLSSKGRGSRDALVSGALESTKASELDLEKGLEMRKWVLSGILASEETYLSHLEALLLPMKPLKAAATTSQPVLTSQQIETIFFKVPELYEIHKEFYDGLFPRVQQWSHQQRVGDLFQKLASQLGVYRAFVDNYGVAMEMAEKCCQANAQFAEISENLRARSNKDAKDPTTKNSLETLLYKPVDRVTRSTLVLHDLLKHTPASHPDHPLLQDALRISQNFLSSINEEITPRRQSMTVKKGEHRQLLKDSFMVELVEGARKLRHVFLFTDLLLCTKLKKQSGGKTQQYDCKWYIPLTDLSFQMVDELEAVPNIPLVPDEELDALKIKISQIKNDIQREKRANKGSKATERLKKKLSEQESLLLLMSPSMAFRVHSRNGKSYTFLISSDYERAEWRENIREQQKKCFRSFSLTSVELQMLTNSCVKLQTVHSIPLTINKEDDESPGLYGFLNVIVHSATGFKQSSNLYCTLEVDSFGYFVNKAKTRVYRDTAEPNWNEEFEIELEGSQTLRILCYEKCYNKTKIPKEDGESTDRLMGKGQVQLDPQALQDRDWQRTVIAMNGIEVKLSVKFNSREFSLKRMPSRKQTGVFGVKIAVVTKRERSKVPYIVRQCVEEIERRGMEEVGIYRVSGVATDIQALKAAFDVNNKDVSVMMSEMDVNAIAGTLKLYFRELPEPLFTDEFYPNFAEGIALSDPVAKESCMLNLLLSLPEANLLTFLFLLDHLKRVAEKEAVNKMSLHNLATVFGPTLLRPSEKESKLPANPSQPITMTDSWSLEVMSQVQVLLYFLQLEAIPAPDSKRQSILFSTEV

Assay [2] addresses T2, Serine/threonine-protein kinase Chk1 (Homo sapiens, UniProt O14757).
T2 sequence (O14757 whole entry): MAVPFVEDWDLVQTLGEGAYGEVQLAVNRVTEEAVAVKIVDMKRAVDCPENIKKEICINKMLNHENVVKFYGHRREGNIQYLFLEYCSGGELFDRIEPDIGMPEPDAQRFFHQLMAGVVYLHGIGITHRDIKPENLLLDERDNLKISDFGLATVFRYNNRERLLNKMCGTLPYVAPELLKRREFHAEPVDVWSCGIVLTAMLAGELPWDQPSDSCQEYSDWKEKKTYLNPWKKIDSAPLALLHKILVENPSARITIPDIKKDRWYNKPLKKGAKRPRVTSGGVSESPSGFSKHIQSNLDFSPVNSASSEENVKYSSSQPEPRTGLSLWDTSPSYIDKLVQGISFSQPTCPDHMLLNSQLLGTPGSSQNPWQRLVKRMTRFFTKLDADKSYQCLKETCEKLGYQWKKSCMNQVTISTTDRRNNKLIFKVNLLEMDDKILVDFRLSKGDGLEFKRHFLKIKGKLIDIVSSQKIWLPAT

Assay [3] deals with Serine/threonine-protein kinase/endoribonuclease IRE1 (Homo sapiens, UniProt O75460).
For assay [4], the target named is Putative heat shock protein HSP 90-beta 2 (Homo sapiens, UniProt Q58FF8).
Assay [5] has as its target Interleukin-1 receptor-associated kinase 1 (Homo sapiens, UniProt P51617).
In assay [6] the target is Mitogen-activated protein kinase 3 (Homo sapiens, UniProt P27361).
Assay [7] concerns the target T3, Phosphorylase b kinase gamma catalytic chain, liver/testis isoform (Homo sapiens, UniProt P15735).
T3 sequence (P15735 whole entry): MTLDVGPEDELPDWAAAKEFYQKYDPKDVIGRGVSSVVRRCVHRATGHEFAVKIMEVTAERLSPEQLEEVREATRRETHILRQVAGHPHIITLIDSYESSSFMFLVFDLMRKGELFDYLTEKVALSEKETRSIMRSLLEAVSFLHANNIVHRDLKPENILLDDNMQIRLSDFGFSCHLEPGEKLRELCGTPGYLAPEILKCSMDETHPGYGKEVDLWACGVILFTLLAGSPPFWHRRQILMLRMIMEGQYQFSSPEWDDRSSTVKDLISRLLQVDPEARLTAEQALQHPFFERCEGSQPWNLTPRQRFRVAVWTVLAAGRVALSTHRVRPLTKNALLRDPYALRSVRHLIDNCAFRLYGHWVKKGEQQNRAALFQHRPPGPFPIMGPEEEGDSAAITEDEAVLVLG

In assay [8] the target is Ribosomal protein S6 kinase alpha-1 (Homo sapiens, UniProt Q15418).
In the next assay the target is T4, ADP/ATP translocase 2 (Homo sapiens, UniProt P05141).
T4 sequence (P05141 whole entry): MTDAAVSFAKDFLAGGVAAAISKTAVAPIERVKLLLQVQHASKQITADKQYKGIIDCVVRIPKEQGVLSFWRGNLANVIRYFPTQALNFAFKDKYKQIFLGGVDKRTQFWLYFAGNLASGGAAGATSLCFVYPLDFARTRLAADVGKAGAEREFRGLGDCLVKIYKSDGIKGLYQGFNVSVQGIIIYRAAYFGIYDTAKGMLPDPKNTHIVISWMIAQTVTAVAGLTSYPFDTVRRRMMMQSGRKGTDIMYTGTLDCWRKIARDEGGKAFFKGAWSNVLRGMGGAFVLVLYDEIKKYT

Assay [9] addresses Non-receptor tyrosine-protein kinase TYK2 (Homo sapiens, UniProt P29597).

Calls of active or inactive are those of the source. Rule as the data show it, for most assays here: actives have a measured Kd and inactives only a lower limit.
Also: in the data inactive means no Kd found up to 30 µM.

Ribosomal protein S6 kinase alpha-1, sequence (Q15418 whole entry): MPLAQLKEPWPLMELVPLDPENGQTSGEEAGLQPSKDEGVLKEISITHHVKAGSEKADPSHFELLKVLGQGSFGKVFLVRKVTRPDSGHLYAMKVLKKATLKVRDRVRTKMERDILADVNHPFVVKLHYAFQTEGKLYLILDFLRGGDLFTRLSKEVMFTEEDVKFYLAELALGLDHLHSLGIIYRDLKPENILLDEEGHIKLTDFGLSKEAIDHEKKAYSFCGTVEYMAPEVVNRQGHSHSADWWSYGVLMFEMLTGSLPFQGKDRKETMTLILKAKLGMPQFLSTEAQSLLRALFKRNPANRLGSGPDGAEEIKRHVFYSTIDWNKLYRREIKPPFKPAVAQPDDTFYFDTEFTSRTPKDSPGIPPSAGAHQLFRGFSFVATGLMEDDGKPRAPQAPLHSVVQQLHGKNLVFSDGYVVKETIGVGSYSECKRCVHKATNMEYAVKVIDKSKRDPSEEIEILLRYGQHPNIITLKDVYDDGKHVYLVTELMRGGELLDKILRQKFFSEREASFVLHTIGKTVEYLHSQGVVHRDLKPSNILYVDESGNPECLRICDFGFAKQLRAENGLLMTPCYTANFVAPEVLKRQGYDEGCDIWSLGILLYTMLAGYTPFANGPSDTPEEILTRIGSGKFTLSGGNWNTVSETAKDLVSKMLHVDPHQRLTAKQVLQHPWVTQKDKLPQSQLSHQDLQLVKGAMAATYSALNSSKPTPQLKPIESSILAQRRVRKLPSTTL
Interleukin-1 receptor-associated kinase 1, sequence (P51617 whole entry): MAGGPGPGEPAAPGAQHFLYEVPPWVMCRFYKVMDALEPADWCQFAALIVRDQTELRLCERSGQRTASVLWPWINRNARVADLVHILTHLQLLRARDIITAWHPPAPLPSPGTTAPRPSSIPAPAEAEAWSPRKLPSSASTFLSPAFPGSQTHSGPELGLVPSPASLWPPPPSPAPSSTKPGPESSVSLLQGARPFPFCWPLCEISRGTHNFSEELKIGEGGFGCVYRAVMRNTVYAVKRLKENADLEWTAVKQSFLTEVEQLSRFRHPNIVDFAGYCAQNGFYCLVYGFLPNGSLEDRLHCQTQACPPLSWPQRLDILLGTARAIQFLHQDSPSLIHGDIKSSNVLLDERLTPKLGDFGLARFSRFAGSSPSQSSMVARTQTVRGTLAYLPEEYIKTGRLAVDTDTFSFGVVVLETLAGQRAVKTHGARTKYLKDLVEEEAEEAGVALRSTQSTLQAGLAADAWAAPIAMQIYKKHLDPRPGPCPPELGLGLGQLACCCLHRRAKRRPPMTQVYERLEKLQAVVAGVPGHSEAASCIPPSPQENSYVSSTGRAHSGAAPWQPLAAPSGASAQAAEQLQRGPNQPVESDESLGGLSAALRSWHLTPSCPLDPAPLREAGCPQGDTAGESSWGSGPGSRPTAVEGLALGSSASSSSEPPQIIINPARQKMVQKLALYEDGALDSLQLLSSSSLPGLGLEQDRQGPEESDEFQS
Mitogen-activated protein kinase 3, sequence (P27361 whole entry, canonical isoform): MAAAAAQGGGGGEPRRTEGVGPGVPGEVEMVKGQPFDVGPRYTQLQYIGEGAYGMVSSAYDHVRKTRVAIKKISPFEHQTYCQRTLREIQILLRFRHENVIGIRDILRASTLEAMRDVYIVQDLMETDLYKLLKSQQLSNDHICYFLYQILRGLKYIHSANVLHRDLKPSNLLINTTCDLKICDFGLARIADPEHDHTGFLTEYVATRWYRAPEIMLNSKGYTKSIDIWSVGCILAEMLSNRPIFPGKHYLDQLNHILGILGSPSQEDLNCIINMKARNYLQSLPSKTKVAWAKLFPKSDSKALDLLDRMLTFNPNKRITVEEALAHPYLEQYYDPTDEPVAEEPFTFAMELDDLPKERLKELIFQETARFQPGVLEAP
Serine/threonine-protein kinase/endoribonuclease IRE1, sequence (O75460 whole entry): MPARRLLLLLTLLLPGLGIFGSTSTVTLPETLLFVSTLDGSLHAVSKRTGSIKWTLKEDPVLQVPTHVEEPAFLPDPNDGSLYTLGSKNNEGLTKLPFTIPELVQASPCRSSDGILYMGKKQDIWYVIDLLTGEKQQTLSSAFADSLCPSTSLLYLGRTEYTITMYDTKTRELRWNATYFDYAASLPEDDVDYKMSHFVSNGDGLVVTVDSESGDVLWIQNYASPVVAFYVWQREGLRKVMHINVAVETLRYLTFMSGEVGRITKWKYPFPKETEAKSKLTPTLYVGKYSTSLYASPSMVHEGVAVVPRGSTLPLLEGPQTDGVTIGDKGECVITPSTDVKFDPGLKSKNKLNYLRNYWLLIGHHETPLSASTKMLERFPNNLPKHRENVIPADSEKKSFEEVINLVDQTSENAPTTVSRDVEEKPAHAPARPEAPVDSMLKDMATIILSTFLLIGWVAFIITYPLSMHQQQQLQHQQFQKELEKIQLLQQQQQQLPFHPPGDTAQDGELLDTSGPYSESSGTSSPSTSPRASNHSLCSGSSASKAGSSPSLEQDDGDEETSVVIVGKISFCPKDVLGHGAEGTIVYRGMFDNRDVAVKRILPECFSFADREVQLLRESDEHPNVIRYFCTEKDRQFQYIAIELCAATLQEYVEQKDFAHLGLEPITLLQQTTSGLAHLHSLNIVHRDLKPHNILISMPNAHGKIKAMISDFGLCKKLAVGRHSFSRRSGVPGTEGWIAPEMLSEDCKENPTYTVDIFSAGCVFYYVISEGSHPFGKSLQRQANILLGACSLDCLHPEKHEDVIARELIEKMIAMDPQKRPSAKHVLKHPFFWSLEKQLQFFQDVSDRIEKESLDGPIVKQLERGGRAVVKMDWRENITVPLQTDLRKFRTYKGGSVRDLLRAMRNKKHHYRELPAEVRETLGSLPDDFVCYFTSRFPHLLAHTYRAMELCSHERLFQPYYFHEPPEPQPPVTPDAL
Non-receptor tyrosine-protein kinase TYK2, sequence (P29597 whole entry): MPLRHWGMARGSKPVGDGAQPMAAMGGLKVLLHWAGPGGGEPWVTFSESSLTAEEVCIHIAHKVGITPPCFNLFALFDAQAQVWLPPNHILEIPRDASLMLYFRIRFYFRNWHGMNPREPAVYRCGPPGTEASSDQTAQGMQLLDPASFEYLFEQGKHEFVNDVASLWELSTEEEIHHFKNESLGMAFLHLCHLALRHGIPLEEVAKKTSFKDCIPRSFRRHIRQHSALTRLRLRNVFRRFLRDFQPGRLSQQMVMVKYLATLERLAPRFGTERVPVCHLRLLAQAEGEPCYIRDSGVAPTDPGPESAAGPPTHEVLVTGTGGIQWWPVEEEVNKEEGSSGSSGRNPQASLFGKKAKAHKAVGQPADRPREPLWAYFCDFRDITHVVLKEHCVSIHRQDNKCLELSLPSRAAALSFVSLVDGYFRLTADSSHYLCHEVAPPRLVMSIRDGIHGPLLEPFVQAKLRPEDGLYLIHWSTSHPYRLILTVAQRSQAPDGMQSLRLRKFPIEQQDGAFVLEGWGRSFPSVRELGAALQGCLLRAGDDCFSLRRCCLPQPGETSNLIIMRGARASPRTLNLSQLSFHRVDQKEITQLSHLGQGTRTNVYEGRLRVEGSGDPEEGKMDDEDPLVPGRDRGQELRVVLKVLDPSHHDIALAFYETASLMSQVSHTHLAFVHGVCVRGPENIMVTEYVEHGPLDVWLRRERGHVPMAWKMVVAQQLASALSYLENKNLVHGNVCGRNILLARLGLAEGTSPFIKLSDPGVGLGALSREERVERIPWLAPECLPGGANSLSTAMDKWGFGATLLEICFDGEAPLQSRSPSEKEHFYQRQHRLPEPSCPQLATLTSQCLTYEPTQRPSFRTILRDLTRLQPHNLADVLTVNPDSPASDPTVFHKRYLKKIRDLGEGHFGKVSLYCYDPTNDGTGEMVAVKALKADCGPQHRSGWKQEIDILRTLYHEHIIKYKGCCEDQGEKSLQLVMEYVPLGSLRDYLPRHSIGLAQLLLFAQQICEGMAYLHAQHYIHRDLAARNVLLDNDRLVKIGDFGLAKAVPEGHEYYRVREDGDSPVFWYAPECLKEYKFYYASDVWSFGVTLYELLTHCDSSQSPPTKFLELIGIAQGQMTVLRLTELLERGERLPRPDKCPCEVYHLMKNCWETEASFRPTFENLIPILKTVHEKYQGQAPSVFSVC
Putative heat shock protein HSP 90-beta 2, sequence (Q58FF8 whole entry): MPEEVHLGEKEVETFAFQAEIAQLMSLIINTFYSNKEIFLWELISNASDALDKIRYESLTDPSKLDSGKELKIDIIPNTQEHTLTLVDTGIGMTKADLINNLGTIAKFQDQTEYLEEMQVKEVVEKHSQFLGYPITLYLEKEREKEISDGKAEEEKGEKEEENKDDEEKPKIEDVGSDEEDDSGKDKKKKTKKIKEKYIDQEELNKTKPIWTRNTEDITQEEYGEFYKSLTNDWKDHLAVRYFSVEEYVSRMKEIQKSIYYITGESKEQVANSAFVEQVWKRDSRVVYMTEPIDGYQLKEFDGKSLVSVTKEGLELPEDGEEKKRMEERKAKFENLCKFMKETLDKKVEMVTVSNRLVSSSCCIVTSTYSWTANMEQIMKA

`C=CC(=O)Nc1cc(Nc2nccc(-c3cn(C)c4ccccc34)n2)c(OC)cc1N(C)CCN(C)C` [OSIMERTINIB]: the Kd in [1], in assay [2], in assay [3], in [4], in [5] and in [6] was > 30 µM (inactive) throughout. Also, the Kd (in assay [7]; in [8]; at ADP/ATP translocase 2; in assay [9]) was > 30 µM (inactive) each time.

As for `COc1cc(Nc2ncc(F)c(Nc3ccc4c(n3)N(COP(=O)(O)O)C(=O)C(C)(C)O4)n2)cc(OC)c1OC` [FOSTAMATINIB], the Kd in [1], in assay [2], in [3], in assay [4], in assay [5] and in [6] was > 30 µM (inactive) throughout. The Kd (in assay [7]; in [8]; at ADP/ATP translocase 2; in [9]) was > 30 µM (inactive) in each case.

`NC[C@@](O)(c1ccc(Cl)cc1)c1ccc(-c2cn[nH]c2)cc1` [AT-13148]: the Kd in assay [1], in assay [2], in assay [3], in assay [4], in [5] and in assay [6] was > 30 µM (inactive) each time. Also, the Kd (in assay [7]; in assay [8]; at ADP/ATP translocase 2; in assay [9]) was > 30 µM (inactive) in each case.

As to `O=S(=O)(c1cccc2c(O)nccc12)N1CCCNCC1` [HYDROXYFASUDIL], the Kd in assay [1], in [2], in assay [3], in [4], in assay [5] and in [6] was > 30 µM (inactive) in each case. In addition, the Kd (in assay [7]; in assay [8]; on ADP/ATP translocase 2; in assay [9]) was > 30 µM (inactive) in each case.

As to `O=C(O)c1ccc2c(c1)nc(Nc1cccc(Cl)c1)c1ccncc12` [SILMITASERTIB], the Kd in assay [1] is > 30 µM (inactive); in [2], 6.17 µM (active); in assay [3] it was > 30 µM (inactive); in [4] it was > 30 µM (inactive); in assay [5], > 30 µM (inactive); in assay [6], > 30 µM (inactive). The Kd in assay [7] is 3.5 µM (active); in [8], 5.92 µM (active); at ADP/ATP translocase 2 it was > 30 µM (inactive); in [9], 2.38 µM (active).

On to `Cc1c(NC(=O)OC[C@@H]2COCCN2)cn2ncnc(Nc3ccc4c(cnn4Cc4cccc(F)c4)c3)c12` [AC-480], for which the Kd in assay [1], in assay [2], in [3], in assay [4], in assay [5] and in assay [6] was > 30 µM (inactive) throughout. The Kd (in assay [7]; in assay [8]; on ADP/ATP translocase 2; in assay [9]) was > 30 µM (inactive) in each case.

For `O[C@H]1CC[C@H](Nc2ncc3nc(Nc4c(F)cc(F)cc4F)n([C@H]4CCOC4)c3n2)CC1` [TANZISERTIB], the Kd was > 30 µM (inactive) in assay [1]; > 30 µM (inactive) in assay [2]; 1.36 µM (active) in assay [3]; > 30 µM (inactive) in [4]; > 30 µM (inactive) in [5]; 3.69 µM (active) in assay [6]. The Kd (in [7]; in [8]; on ADP/ATP translocase 2; in assay [9]) was > 30 µM (inactive) in each case.

By Kd is commonly meant the constant that tells how readily two partners part at equilibrium.
